According to patent EP0182317A2, “Antineoplastic agent” (priority 1984, dated 1986):

What was measured:
[1] = tested on: Ehrlich carcinoma; test: Antineoplastic effect on Ehrlich carcinoma in mice (survival, T/C percent); type: in vivo, male ICR mouse; details: in the abdomen once a day for 7 days; for response vs control in vivo at 2 mg/kg / response vs control in vivo at 4 mg/kg / response vs control in vivo at 8 mg/kg / response vs control in vivo at 16 mg/kg / response vs control in vivo at 1 mg/kg / response vs control in vivo at 32 mg/kg: Mus musculus, Ehrlich, ip, 720 h
Method: Antineoplastic effect on Ehrlich carcinoma:
(§1) About 10^6/0.2 ml of Ehrlich carcinoma cells were placed in an abdomen of each male ICR mouse of 5 weeks old. On the next day the administration of the test sample in the abdomen was started. The test sample was given once a day for 7 days. For an untreated group, a physiological saline solution was given in the same manner as above. […] The T/C percent (T/C x 100) was determined from the average survival periods (days) of the treated group and control group. Further, 50 % lethal dose (LD50) was determined from the number of the mice which died of toxicity of the test samples administered.

[2] = 50 % lethal dose from toxic deaths in the Ehrlich carcinoma experiment; type: in vivo, male ICR mouse; details: mice bearing Ehrlich carcinoma, in the abdomen once a day for 7 days; for LD50 at 720 h: mouse, in vivo, ip; for LD50: 43200 min
Method: as §1

[3] = tested on: Salmonella typhimurium TA-98; test: Antimutagenic properties by Ames method with benzo[a]pyrene as mutagen; type: cell-based; details: for Number of colonies: B(a)P, S-9 mix; for inhibition rate: inhibition of the mutagenic effect of B(a)P
Method: The experiment was carried out by Ames method using Salmonella typhimurium TA-98 (hereinafter referred to as TA-98) as the test microorganism and benzo[a]pyrene (hereinafter referred to as B(a)P) as the mutagen.
0.1 ml of a solution containing […] of B(a)P and a suitable amount of a compound of the present invention was added to 0.5 ml of S-9 mix and 0.1 ml of a TA-98 suspension. The mixture was incubated at 37°C for 20 min. 2 ml of soft agar was added thereto, mixed well and then spread evenly on a glucose minimum agar medium plate. After the incubation at 37°C for 48 h, the number of colonies formed by the back mutation was counted.
The number of the colonies formed when neither B(a)P nor the compound of the present invention was used was employed as the background.
The antimutagenic properties was shown as the rate of inhibition of the mutagenic effect according to the following formula: [formula]

[4] = dose 2.0 mg/kg, observation period 60 days
[5] = dose 4.0 mg/kg, observation period 60 days
[6] = dose 8.0 mg/kg, observation period 60 days
[7] = dose 1.0 mg/kg, observation period 60 days
[8] = dose 2.0 mg/kg, observation period 30 days
[9] = dose 4.0 mg/kg, observation period 30 days
[10] = dose 8.0 mg/kg, observation period 30 days

Compound | response vs control in vivo at 2 mg/kg [1, 4] [%] | response vs control in vivo at 4 mg/kg [1, 5] [%] | response vs control in vivo at 8 mg/kg [1, 6] [%] | response vs control in vivo at 16 mg/kg ([1]; observation period 60 days) [%] | LD50 at 720 h [2] [mg/kg] | Antineoplastic effect (T/C percent) [1, 4] [%] | Antineoplastic effect (T/C percent) [1, 5] [%] | Antineoplastic effect (T/C percent) [1, 6] [%] | LD50 [2] | other results
CC(Cl)CO[Se](=O)OCC(C)Cl (stereo not shown) [Compound 13, di(2-chloropropyl) selenite] | 190 | 234 | 219 | 71 | 8 to 16 |  |  |  |  | 
2,3-butanediol selenite [Compound 16] |  |  |  |  |  | 216 | 261 | 174 |  | Antineoplastic effect (T/C percent) [1, 7]: 185%
O=[Se](OCCCl)OCCCl [Compound 12, di(2-chloroethyl) selenite] | 197 | 225 | 194 | 65 | 8 |  |  |  |  | 
CCCO[Se](=O)OCCC [Compound 10, di(n-propyl) selenite] | 175 | 170 | 102 | 14 | 8 |  |  |  |  | 
selenium oxychloride·isoquinoline complex [Compound 6] |  |  |  |  |  | 211 | 206 | 187 |  | Antineoplastic effect (T/C percent) [1, 8]: 158.5%; Antineoplastic effect (T/C percent) [1, 9]: 164.8%; Antineoplastic effect (T/C percent) [1, 10]: 162.9%
selenium tetrachloride [Compound 19] |  |  |  |  |  | 179 | 249 | 183 | >16 mg/kg/day x7 | Antineoplastic effect (T/C percent) [1, 7]: 167%
O=[Se]1OCCO1 [Compound 14, 1,2-ethanediol selenite] | 193 | 266 | 108 | 34 | 4 to 8 |  |  |  |  | Number of colonies ([3]; dose 0.5 µg/plate): 231; inhibition rate ([3]; dose 0.5 µg/plate): 23.1%; Number of colonies ([3]; dose 1 µg/plate): 235; inhibition rate ([3]; dose 1 µg/plate): 21.6%; Number of colonies ([3]; dose 5 µg/plate): 156; inhibition rate ([3]; dose 5 µg/plate): 51.1%; Number of colonies ([3]; dose 10 µg/plate): 145; inhibition rate ([3]; dose 10 µg/plate): 55.2%; Number of colonies ([3]; dose 50 µg/plate): 76; inhibition rate ([3]; dose 50 µg/plate): 81.0%; Number of colonies ([3]; dose 100 µg/plate): 62; inhibition rate ([3]; dose 100 µg/plate): 86.2%; Number of colonies ([3]; dose 500 µg/plate): 32; inhibition rate ([3]; dose 500 µg/plate): 97.4%
O=[Se]1OCCCO1 [Compound 17, 1,3-propanediol selenite] | 221 | 197 | 83 |  | 4 to 8 |  |  |  |  | response vs control in vivo at 1 mg/kg [1, 7]: 174%
CCO[Se](=O)c1ccccc1 (stereo not shown) [Compound 2, ethyl phenylseleninate] |  | 118 | 134 | 193 | 16 to 32 |  |  |  |  | response vs control in vivo at 4 mg/kg [1, 9]: 118%; response vs control in vivo at 8 mg/kg [1, 10]: 134%; response vs control in vivo at 32 mg/kg ([1]; observation period 30 days): 87.9%; response vs control in vivo at 32 mg/kg ([1]; observation period 60 days): 88%; response vs control in vivo at 16 mg/kg ([1]; observation period 30 days): 150%
CC1CO[Se](=O)O1 (stereo not shown) [Compound 15, 1,2-propanediol selenite] | 258 | 204 | 105 |  | 8 |  |  |  |  | response vs control in vivo at 1 mg/kg [1, 7]: 227%
selenium tetrachloride·pyridine complex [Compound 21] |  |  |  |  |  | 155 | 217 | 246 | 8-16 mg/kg/day x7 | 
CCO[Se](=O)OCC [Compound 9, diethyl selenite] | 246 | 203 | 201 | 14 | 4 to 8 |  |  |  |  | 
selenium oxychloride·quinoline complex [Compound 5] |  |  |  |  |  | 131 | 199 | 269 | >16 mg/kg/day x7 | Antineoplastic effect (T/C percent) [1, 8]: 131.4%; Antineoplastic effect (T/C percent) [1, 9]: 156.0%; Antineoplastic effect (T/C percent) [1, 10]: 181.8%
CC(C)O[Se](=O)OC(C)C [Compound 11, diisopropyl selenite] | 204 | 236 | 126 | 14 | 4 to 8 |  |  |  |  | 
O=[Se](O)c1ccccc1 [Compound 1, phenylseleninic acid] | 123 | 129 | 141 | 149 | > 16 |  |  |  |  | response vs control in vivo at 2 mg/kg [1, 8]: 123%; response vs control in vivo at 4 mg/kg [1, 9]: 129%; response vs control in vivo at 8 mg/kg [1, 10]: 141%; response vs control in vivo at 16 mg/kg ([1]; observation period 30 days): 149%
selenium oxychloride [Compound 3] |  |  |  |  |  |  |  |  | 6 mg/kg/day x7 | Antineoplastic effect (T/C percent) ([1]; dose 0.75 mg/kg, observation period 60 days): 141%; Antineoplastic effect (T/C percent) ([1]; dose 1.5 mg/kg, observation period 60 days): 222%; Antineoplastic effect (T/C percent) ([1]; dose 3.0 mg/kg, observation period 60 days): 168%; Antineoplastic effect (T/C percent) ([1]; dose 6.0 mg/kg, observation period 60 days): 105%; Number of colonies ([3]; dose 0.5 µg/plate): 205; inhibition rate ([3]; dose 0.5 µg/plate): 30.3%; Number of colonies ([3]; dose 1 µg/plate): 230; inhibition rate ([3]; dose 1 µg/plate): 22.0%; Number of colonies ([3]; dose 5 µg/plate): 154; inhibition rate ([3]; dose 5 µg/plate): 52.0%; Number of colonies ([3]; dose 10 µg/plate): 132; inhibition rate ([3]; dose 10 µg/plate): 60.6%; Number of colonies ([3]; dose 50 µg/plate): 72; inhibition rate ([3]; dose 50 µg/plate): 84.3%; Number of colonies ([3]; dose 100 µg/plate): 70; inhibition rate ([3]; dose 100 µg/plate): 85.6%; Number of colonies ([3]; dose 500 µg/plate): 27; inhibition rate ([3]; dose 500 µg/plate): 100%
selenium oxychloride·dioxane complex [Compound 7] |  |  |  |  |  | 211 | 225 | 194 | 8 - 16 mg/kg/day x7 | 
selenium oxybromide·dioxane complex [Compound 8] |  |  |  |  |  | 182 | 226 | 228 | 8 - 16 mg/kg/day x7 | 
2,2-dimethyl-1,3-propanediol selenite [Compound 18] |  |  |  |  |  | 193 | 194 | 194 |  | Antineoplastic effect (T/C percent) [1, 7]: 164%
selenium tetrabromide [Compound 20] |  |  |  |  |  | 196 | 272 | 183 | 8-16 mg/kg/day x7 | 
